Among the data in ChEMBL document CHEMBL3227942, “Synthetic studies on beta-lactam antibiotics. Part 101. Synthesis of 7beta-[2-carboxy-2-(4-hydroxyphenyl)acetamido]-7alpha-methoxy-3-[[(1-methyl-1H-tetrazol-5-yl)thio]-methyl]-1-oxa-1-dethia-3-cephem-4-carboxylic acid disodium salt (6059-S) and its related 1-oxacephems” (1979) are MIC values, retold here.

Broadly, the MIC is the lowest concentration that inhibits growth of the organism. A high value points to weaker potency.

Converted amounts (≈) assume the structure as drawn. Some results are limits rather than exact numbers.

What all share (assay type): functional
Assay [1] relates to Pseudomonas aeruginosa. Description: Antibacterial activity against Pseudomonas aeruginosa 24.
The test system of assay [2] is Serratia marcescens. Put plainly: Antibacterial activity against Serratia marcescens ATCC 13880.
The subject of assay [3] is Staphylococcus aureus. Put plainly: Antibacterial activity against beta-lactamase producing Staphylococcus aureus C-14.
The subject of assay [4] is Klebsiella pneumoniae. Put plainly: Antibacterial activity against beta-lactamase producing Klebsiella pneumoniae 363.
Assay [5] has as its system Escherichia coli. Put plainly: Antibacterial activity against Escherichia coli NIHJ JC-2.
Assay [6] has as its system Streptococcus pneumoniae. Description: Antibacterial activity against Streptococcus pneumoniae I.
For assay [7], the system named is Proteus vulgaris. Put plainly: Antibacterial activity against Proteus vulgaris CN-329.
The subject of assay [8] is Staphylococcus aureus. Description: Antibacterial activity against Staphylococcus aureus 209P JC-1.
In assay [9] the test system is Proteus mirabilis. Put plainly: Antibacterial activity against Proteus mirabilis PR-4.
The subject of assay [10] is Enterobacter cloacae. Put plainly: Antibacterial activity against Enterobacter cloacae 233.
In assay [11] the test system is Klebsiella pneumoniae. Description: Antibacterial activity against Klebsiella pneumoniae.

`Cn1nnnc1SCC1=C(C(=O)O)N2C(=O)[C@@H](NC(=O)[C@H](O)c3ccccc3)[C@H]2OC1`: the minimum inhibitory concentration (MIC) in assay [1] was over 100 µg/mL; in [2] it was 6.3 µg/mL (≈ 14.1 µM); in assay [3], 0.4 µg/mL (≈ 0.896 µM); in [4], 100 µg/mL (≈ 224 µM); in assay [5] it was 0.05 µg/mL (≈ 0.112 µM); in assay [6], 0.025 µg/mL (≈ 0.056 µM). Moreover, the minimal inhibitory concentration (MIC) in assay [7] is 0.1 µg/mL (≈ 0.224 µM); in assay [8], 0.025 µg/mL (≈ 0.056 µM); in [9], 0.1 µg/mL (≈ 0.224 µM); in assay [10], 0.4 µg/mL (≈ 0.896 µM); in assay [11], 0.05 µg/mL (≈ 0.112 µM).

`CC(=O)OCC1=C(C(=O)O)N2C(=O)[C@@H](NC(=O)Cc3cccs3)[C@H]2SC1` [CEPHALOTHIN]: the minimal inhibitory concentration (MIC) is over 100 µg/mL in assay [1]; over 100 µg/mL in assay [2]; 0.2 µg/mL (≈ 0.504 µM) in assay [3]; over 100 µg/mL in [4]; 6.3 µg/mL (≈ 15.9 µM) in assay [5]; 0.1 µg/mL (≈ 0.252 µM) in assay [6]. Besides, the MIC in [7] is 50 µg/mL (≈ 126 µM); in [8], 0.05 µg/mL (≈ 0.126 µM); in assay [9], 3.1 µg/mL (≈ 7.82 µM); in [10], over 100 µg/mL; in assay [11], 0.8 µg/mL (≈ 2.02 µM).

Take `CO[C@]1(NC(=O)[C@H](OC=O)c2ccccc2)C(=O)N2C(C(=O)O)=C(CSc3nnnn3C)CS[C@@H]21`: the minimal inhibitory concentration (MIC) in assay [1] was over 100 µg/mL; in assay [2], 12.5 µg/mL (≈ 24 µM); in [3], 3.1 µg/mL (≈ 5.96 µM); in assay [4], 0.8 µg/mL (≈ 1.54 µM); in assay [5], 1.6 µg/mL (≈ 3.07 µM); in [6], 1.6 µg/mL (≈ 3.07 µM). Further, the minimal inhibitory concentration (MIC) in assay [7] was found to be 0.8 µg/mL (≈ 1.54 µM); in assay [8] it was 0.8 µg/mL (≈ 1.54 µM); in assay [9], 1.6 µg/mL (≈ 3.07 µM); in [10], 12.5 µg/mL (≈ 24 µM); in [11], 0.8 µg/mL (≈ 1.54 µM).

As to `CO[C@@]1(NC(=O)[C@H](OC=O)c2ccccc2)C(=O)N2C(C(=O)O)=C(CSc3nnnn3C)CO[C@@H]21`, the minimum inhibitory concentration (MIC) in [1] is over 100 µg/mL; in [2], 3.1 µg/mL (≈ 6.14 µM); in [3], 0.4 µg/mL (≈ 0.793 µM); in [4], 0.1 µg/mL (≈ 0.198 µM); in assay [5] it was 0.05 µg/mL (≈ 0.0991 µM); in [6], 0.2 µg/mL (≈ 0.396 µM). Moreover, the minimal inhibitory concentration (MIC) in assay [7] was found to be 0.2 µg/mL (≈ 0.396 µM); in assay [8], 0.4 µg/mL (≈ 0.793 µM); in [9], 0.2 µg/mL (≈ 0.396 µM); in assay [10], 3.1 µg/mL (≈ 6.14 µM); in assay [11], 0.1 µg/mL (≈ 0.198 µM).

In the case of `CC(=O)OCC1=C(C(=O)O)N2C(=O)[C@@H](NC(=O)Cc3cccs3)[C@H]2OC1`, the MIC is over 100 µg/mL in assay [1]; over 100 µg/mL in assay [2]; 0.1 µg/mL (≈ 0.263 µM) in assay [3]; over 100 µg/mL in assay [4]; 0.8 µg/mL (≈ 2.1 µM) in assay [5]; 0.025 µg/mL (≈ 0.0657 µM) in [6]. For the same compound, the MIC in assay [7] amounted to 50 µg/mL (≈ 131 µM); in assay [8], 0.013 µg/mL (≈ 0.0342 µM); in assay [9], 0.4 µg/mL (≈ 1.05 µM); in [10], 100 µg/mL (≈ 263 µM); in assay [11], 0.2 µg/mL (≈ 0.526 µM).

As for `CO[C@@]1(NC(=O)C(C(=O)[O-])c2ccc(O)cc2)C(=O)N2C(C(=O)[O-])=C(CSc3nnnn3C)CO[C@@H]21.[Na+].[Na+]` (some centres not stated) [MOXALACTAM DISODIUM], the MIC in [1] is 25 µg/mL; in assay [2], 0.4 µg/mL; in assay [3], 6.3 µg/mL; in [4] it was 0.05 µg/mL; in [5], 0.1 µg/mL; in assay [6] it was 3.1 µg/mL. The minimum inhibitory concentration (MIC) in [7] turned out to be 0.1 µg/mL; in assay [8], 6.3 µg/mL; in assay [9], 0.1 µg/mL; in assay [10], 0.2 µg/mL; in assay [11], 0.1 µg/mL.

Consider `Cn1nnnc1SCC1=C(C(=O)O)N2C(=O)[C@@H](NC(=O)[C@H](O)c3ccccc3)[C@H]2SC1` [CEFAMANDOLE], for which the minimal inhibitory concentration (MIC) in [1] was over 100 µg/mL; in [2], 50 µg/mL (≈ 108 µM); in assay [3], 0.4 µg/mL (≈ 0.865 µM); in [4], over 100 µg/mL; in assay [5], 0.4 µg/mL (≈ 0.865 µM); in [6], 0.1 µg/mL (≈ 0.216 µM). Besides, the MIC in assay [7] is 0.8 µg/mL (≈ 1.73 µM); in assay [8], 0.1 µg/mL (≈ 0.216 µM); in assay [9], 0.8 µg/mL (≈ 1.73 µM); in [10], 3.1 µg/mL (≈ 6.7 µM); in assay [11], 0.4 µg/mL (≈ 0.865 µM).
